Experimental data reported in patent US20220304993A1, “CONJUGATES OF AN ELECTRON-DONATING NITROGEN OR TERTIARY AMINE […]” (Ascendis Pharma A/S, priority 2019, published 2022).

Assay: In vitro release kinetics: cleavage rate of the reversible bond from the conjugates
Type: physicochemical
Conditions: pH 7.4, 37° C., aqueous buffer (48 mM sodium phosphate, 20% acetonitrile), disappearance of the conjugate by LCMS (UV detection), curve fitting, read-out: t1/2 (pH 7.4) (converted)
Procedure: The cleavage rate of the reversible bond from conjugates 8a-b was monitored at pH 7.4 and 37° C. in aqueous buffer (pH 7.4, 48 mM sodium phosphate, 20% acetonitrile). Disappearance of the conjugate was determined by LCMS (UV detection) and fitted with curve fitting software to obtain the half-life of the release.

| Structure (SMILES) | half-life |
| --- | --- |
| CNCCCN(C)C(=O)Oc1ccc(C(C)[N+](C)(C)CCc2ccccc2)cc1 (centres unmarked) [Compound 8a] | 1.3 h |
| CNCCCN(C)C(=O)Oc1ccc(C(C)[n+]2cccc3ccccc32)cc1 (centres unmarked) [Compound 8b] | 1.8 h |
